# Reference: patent US20240287080A1 (IDEAYA Biosciences Inc., priority 2021, published 2024)
# Molecular target: T1, Pol theta (1-899) (Homo sapiens, UniProt O75417)
# T1 construct: Pol theta (1-899) (5 nM) in assay buffer
# Assay: Pol theta ATPase activity, NADH oxidation-coupled enzymatic assay (ATPase NADH coupling: Standard Screening: hPolQ)
# Assay type: biochemical
# Conditions: Pol theta (1-899) 5 nM, NADH oxidation-coupled ATPase assay; compounds of Table 3
# Outline: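 Rates of ATP hydrolysis taken from 60-min A340 traces of NADH oxidation via PK/LDH coupling, then fit four-parameter for IC50, Hill slope and max inhibition. Enzyme (5 nM, 1-899) and compounds preincubated 15 min before ATP 100 μM and 50-thymine ssDNA 300 nM (stock, equal volume added).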
# T1 sequence (O75417 1-899): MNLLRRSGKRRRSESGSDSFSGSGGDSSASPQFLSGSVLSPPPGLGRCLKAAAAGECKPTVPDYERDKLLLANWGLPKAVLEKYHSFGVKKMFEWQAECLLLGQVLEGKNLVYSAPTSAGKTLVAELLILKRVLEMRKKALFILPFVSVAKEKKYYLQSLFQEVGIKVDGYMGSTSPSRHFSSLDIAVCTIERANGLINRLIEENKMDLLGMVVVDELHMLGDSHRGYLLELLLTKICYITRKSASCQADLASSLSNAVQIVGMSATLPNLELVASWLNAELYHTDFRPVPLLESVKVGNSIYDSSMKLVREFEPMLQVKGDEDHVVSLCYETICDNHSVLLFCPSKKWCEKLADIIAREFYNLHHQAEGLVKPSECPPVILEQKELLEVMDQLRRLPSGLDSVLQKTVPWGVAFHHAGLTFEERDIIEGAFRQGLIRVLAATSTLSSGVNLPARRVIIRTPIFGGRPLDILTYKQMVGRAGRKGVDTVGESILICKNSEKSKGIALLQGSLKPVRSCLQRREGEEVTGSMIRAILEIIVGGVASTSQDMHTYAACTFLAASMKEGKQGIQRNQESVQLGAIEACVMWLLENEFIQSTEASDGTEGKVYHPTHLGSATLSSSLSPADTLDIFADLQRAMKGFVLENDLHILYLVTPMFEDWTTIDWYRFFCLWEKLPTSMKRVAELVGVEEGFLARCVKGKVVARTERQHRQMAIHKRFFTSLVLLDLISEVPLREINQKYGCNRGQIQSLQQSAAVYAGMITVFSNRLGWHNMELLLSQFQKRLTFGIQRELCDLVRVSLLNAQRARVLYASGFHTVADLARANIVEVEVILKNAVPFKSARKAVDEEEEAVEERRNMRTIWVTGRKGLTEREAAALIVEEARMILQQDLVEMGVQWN
row,IC50 [nM],SMILES
1,200 to 500,"COc1nnc(NC(=O)c2cnc(C)cc2-c2cc(C)cc(F)c2)s1 [Example 405, 4-(3-fluoro-5-methylphenyl)-N-(5-methoxy-1,3,4-thiadiazol-2-yl)-6-methylpyridine-3-carboxamide]"
2,1000 to 10000,"COc1nnc(NC(=O)c2cnc(C)cc2-c2cccc(C(=O)N(C)C)c2)s1 [Example 336, 4-[3-(dimethylcarbamoyl)phenyl]-N-(5-methoxy-1,3,4-thiadiazol-2-yl)-6-methylpyridine-3-carboxamide]"
3,1000 to 10000,"COc1nnc(NC(=O)c2cnc(C)cc2-c2cc(C(F)(F)F)cc(C(F)(F)F)c2)s1 [Example 333, 4-[3,5-bis(trifluoromethyl)phenyl]-N-(5-methoxy-1,3,4-thiadiazol-2-yl)-6-methylpyridine-3-carboxamide]"
4,1000 to 10000,"COc1nnc(NC(=O)c2cnc(C)cc2-c2cccc3c2ccn3C)s1 [Example 482, N-(5-methoxy-1,3,4-thiadiazol-2-yl)-6-methyl-4-(1-methyl-1H-indol-4-yl)pyridine-3-carboxamide]"
5,≤ 200,"COc1cnc(Cl)cc1-c1cc(C)ncc1C(=O)Nc1nnc(O[C@H]2CO[C@H]3[C@@H]2OC[C@H]3O[N+](=O)[O-])s1 [Example 238, (3R,3aS,6S,6aR)-6-((5-(2′-chloro-5′-methoxy-6-methyl-[4,4′-bipyridine]-3-carboxamido)-1,3,4-thiadiazol-2-yl)oxy)hexahydrofuro[3,2-b]furan-3-yl nitrate]"
6,500 to 1000,"COc1ccc(OC)c(-c2cc(C)ncc2C(=O)Nc2nnc(OC)s2)c1 [Example 486, 4-(2,5-dimethoxyphenyl)-N-(5-methoxy-1,3,4-thiadiazol-2-yl)-6-methylnicotinamide]"
7,1000 to 10000,"COc1nnc(NC(=O)c2cnc(C)cc2-c2cnn(Cc3ccccc3)c2)s1 [Example 468, 4-(1-benzyl-1H-pyrazol-4-yl)-N-(5-methoxy-1,3,4-thiadiazol-2-yl)-6-methylnicotinamide]"
8,≤ 200,"COc1cnc(Br)cc1-c1cc(C)ncc1C(=O)Nc1nnc(O[C@H]2CC[C@H](CO)CC2)s1 [Example 315, 2′-bromo-N-(5-(((1r,4r)-4-(hydroxymethyl)cyclohexyl)oxy)-1,3,4-thiadiazol-2-yl)-5′-methoxy-6-methyl-[4,4′-bipyridine]-3-carboxamide]"
9,≤ 200,"COc1cnc(Cl)cc1-c1cc(C)ncc1C(=O)Nc1nnc(OC2CCCN(C3CCOC3)C2)s1 (stereo not drawn) [Example 247, 2′-chloro-5′-methoxy-6-methyl-N-(5-((1-(tetrahydrofuran-3-yl)piperidin-3-yl)oxy)-1,3,4-thiadiazol-2-yl)-[4,4′-bipyridine]-3-carboxamide]"
10,500 to 1000,"CCc1cccc(-c2cc(C)ncc2C(=O)Nc2nnc(OC)s2)c1 [Example 383, 4-(3-ethylphenyl)-N-(5-methoxy-1,3,4-thiadiazol-2-yl)-6-methylpyridine-3-carboxamide]"
11,1000 to 10000,"COc1nnc(NC(=O)c2cnc(C)cc2-c2cccc(CC#N)c2)s1 [Example 477, 4-[3-(cyanomethyl)phenyl]-N-(5-methoxy-1,3,4-thiadiazol-2-yl)-6-methylpyridine-3-carboxamide]"
12,≤ 200,"COc1cnc(C)c(F)c1-c1cc(C)ncc1C(=O)Nc1nnc(O[C@@H]2CCC[C@@H](O)C2)s1 (single isomer, unassigned) [Example 274]"
13,500 to 1000,"COc1nnc(NC(=O)c2cnc(C)cc2-c2cccc(S(C)(=O)=O)c2)s1 [Example 397, 4-(3-methanesulfonylphenyl)-N-(5-methoxy-1,3,4-thiadiazol-2-yl)-6-methylpyridine-3-carboxamide]"
14,1000 to 10000,"COc1nnc(NC(=O)c2cnc(C)cc2-c2cnn3c2CCCC3)s1 [Example 395, N-(5-methoxy-1,3,4-thiadiazol-2-yl)-6-methyl-4-{4H,5H,6H,7H-pyrazolo[1,5-a]pyridin-3-yl}pyridine-3-carboxamide]"
15,1000 to 10000,"COc1nnc(NC(=O)c2cnc(C)cc2-c2cc(C3CC3)nn2C2CCCCO2)s1 (stereo not drawn) [Example 350, 4-(3-cyclopropyl-1-(tetrahydro-2H-pyran-2-yl)-1H-pyrazol-5-yl)-N-(5-methoxy-1,3,4-thiadiazol-2-yl)-6-methylnicotinamide]"

# Same assay, conditions: Table 4; Pol theta (1-899) 5 nM, ATP, dT50 ssDNA
row,IC50 [nM],SMILES
1,200 to 500,"COc1nnc(NC(=O)c2cnc(C)cc2-c2c(Cl)cccc2OC(F)F)s1 [Example 55, 4-(2-chloro-6-(difluoromethoxy)phenyl)-N-(5-methoxy-1,3,4-thiadiazol-2-yl)-6-methylnicotinamide]"
2,1000 to 10000,"COc1nnc(NC(=O)c2cnc(C)cc2-c2cc([C@@H](C)O)ncc2OC)s1 (single isomer, unassigned) [Example 69]"
3,1000 to 10000,"COc1nnc(NC(=O)c2cn3ccnc3cc2-c2c(F)cccc2OC)s1 [Example 50, 7-(2-fluoro-6-methoxyphenyl)-N-(5-methoxy-1,3,4-thiadiazol-2-yl)imidazo(1,2-a)pyridine-6-carboxamide]"
4,1000 to 10000,"COc1nnc(NC(=O)c2cnc(C)cc2-c2cc([C@H](C)O)ncc2OC)s1 (single isomer, unassigned) [Example 68]"
5,200 to 500,"COc1cccc(F)c1-c1cc(C)ncc1C(=O)Nc1nnc(OCC(C)(C)C(F)(F)F)s1 [Example 4, 4-(2-fluoro-6-methoxyphenyl)-6-methyl-N-(5-(3,3,3-trifluoro-2,2-dimethylpropoxy)-1,3,4-thiadiazol-2-yl)pyridine-3-carboxamide]"
6,≤ 200,"COc1cnc(Cl)cc1-c1cc(C)ncc1C(=O)Nc1nnc(O[C@H]2CCO[C@@H]2C)s1 (single isomer, unassigned) [Example 77, 2′-chloro-5′-methoxy-6-methyl-N-(5-(((2r,3s)-2-methyltetrahydrofuran-3-yl)oxy)-1,3,4-thiadiazol-2-yl)-(4,4′-bipyridine)-3-carboxamide]"
7,≤ 200,"COc1nnc(NC(=O)c2cnc(C)cc2-c2c(F)cccc2Cl)s1 [Example 38, 4-(2-chloro-6-fluorophenyl)-N-(5-methoxy-1,3,4-thiadiazol-2-yl)-6-methylnicotinamide]"

# Same assay, conditions: Table 5; Pol theta (1-899) 5 nM, ATP, dT50 ssDNA
row,IC50 [nM],SMILES
1,≤ 200,"COc1cnc(Cl)c(F)c1-c1cc(C)ncc1C(=O)Nc1nnc(O[C@H]2CCO[C@H]2C)s1 (single isomer, unassigned) [Example 164]"
2,≤ 200,"COc1cnc(Cl)cc1-c1cc(C)ncc1C(=O)Nc1nnc(O[C@H]2CC[C@@H](CO)CC2)s1 [Example 169, 2′-chloro-N-(5-(((1s,4s)-4-(hydroxymethyl)cyclohexyl)oxy)-1,3,4-thiadiazol-2-yl)-5′-methoxy-6-methyl-(4,4′-bipyridine)-3-carboxamide]"
3,≤ 200,"COc1cnc(Cl)cc1-c1cc(C)ncc1C(=O)Nc1nnc(O[C@H]2CC[C@@H]2O)s1 (single isomer, unassigned) [Example 119]"
4,200 to 500,"COc1nnc(NC(=O)c2cnc(C)cc2-c2cccc(Cl)c2)s1 [Example 102, 4-(3-chlorophenyl)-N-(5-methoxy-1,3,4-thiadiazol-2-yl)-6-methylnicotinamide]"
5,≤ 200,"Cc1cc(-c2cc(Cl)ncc2OC(F)F)c(C(=O)Nc2nnc(O[C@H]3CC[C@](C)(O)CC3)s2)cn1 (single isomer, unassigned) [Example 223, 2′-chloro-5′-(difluoromethoxy)-N-(5-(((1r,4r)-4-hydroxy-4-methylcyclohexyl)oxy)-1,3,4-thiadiazol-2-yl)-6-methyl-(4,4′-bipyridine)-3-carboxamide]"
